The record followed here is article PMC4152272 (PLoS ONE, 2014).

Assay [1] relates to T1, N188 (Novozyme 188 BGL).
T1 construct: gene bglA; commercial preparation Novozyme 188 (Novozymes), partially purified; N-glycosylated
The assay can be described thus: glucose release, glucose assay reagent, […] nm. The settings on record: 50 mM acetate pH 5.0. Type of assay: biochemical.

Assay [2] has as its system T1, N188 (Novozyme 188 BGL). Briefly: p-nitrophenol release, […] nm, nonlinear least squares. Type of assay: biochemical. Particulars: 50 mM acetate pH 5.0, 50°C, 1 min.

Broadly, the Km is the substrate concentration at which the rate is half of its maximum. With `OC[C@H]1O[C@@H](O[C@H]2[C@H](O)[C@@H](O)C(O)O[C@@H]2CO)[C@H](O)[C@@H](O)[C@@H]1O` (some centres unmarked) [cellobiose], in the assay with N188 (Novozyme 188 BGL) [1], the Km came to 2530 ± 506 µM.
In the case of `O=[N+]([O-])c1ccc(O[C@@H]2O[C@H](CO)[C@@H](O)[C@H](O)[C@H]2O)cc1` [pNPG, p-nitrophenyl β-D-glucopyranoside], the Km with N188 (Novozyme 188 BGL) [2] worked out at 1250 ± 164 µM.
